# Laboratory results taken from patent US20240092757A1, “HETEROARYL DIAMIDE IRE1/XBP1s ACTIVATORS” (Protego Biopharma, Inc., priority 2021, published 2024).
# Where a name gives a salt, the structure may show the parent alone.
# Test system: IRE1-XBP1s
# Assay: IRE1-XBP1s activation Assay (XBP1-RLuc splicing reporter, HEK293 T-REx cells)
# Assay type: cell-based
# Details: compound 10 μM, 18 h, HEK293 T-REx cells stably expressing XBP1-RLuc splicing reporter, relative to thapsigargin (Tg) 500 nM, read-out: Activity (IRE1-XBP1s Activation; luminescence as percentage signal relative to thapsigargin)
# Method: IRE1-XBP1s activation Assay: HEK293 T-REx cells stably expressing the XBP1-RLuc splicing reporter were treated with an IRE1—XBP1s activator provided herein (10 μM) in the presence or absence of the IRE1 active site inhibitor 4 μ8C (32 μM) for 18 h. Luminescence was shown as the percentage signal relative to thapsigargin (Tg) (500 nM, 18 h).
row,SMILES,activation at 10 µM [%]
1,COc1ccc(OCCC(=O)Nc2cnn(CC(=O)N(C)CCOc3ccc(C)cc3)c2)cc1 [Compound 10],≥ 50
2,Cc1ccc(OCCN(C)C(=O)Cn2cnc(NC(=O)CCOc3ccc(F)cc3)c2)cc1 [Compound 16],≥ 50
3,"Cc1ccc(OCCN(C)C(=O)Cn2cc(NC(=O)CCc3ccccc3)cn2)cc1 [Compound 25, N-(1-(2-(Methyl(2-(p-tolyloxy)ethyl)amino)-2-oxoethyl)-1H -pyrazol-4-yl)-3-phenylpropanamide hydrochloride]",30 to 50
4,"Cc1ccc(OCCN(C)C(=O)Cn2cc(NC(=O)Cc3ccccc3)cn2)cc1 [Compound 26, N-Methyl-2-(4-(2-phenylacetamido)-1H-pyrazol-1-yl)-N-(2-(p-tolyloxy)ethypacetamide hydrochloride]",< 30
5,"CN(CCc1ccccc1)C(=O)Cn1cc(NC(=O)CCOc2ccccc2)cn1 [Compound 27, N-(1-(2-(methyl(phenethyl)amino)-2-oxoethyl)-1H-pyrazol-4-yl) -3-phenoxypropanamide hydrochloride]",< 30
6,"CN(C(=O)Cn1cc(NC(=O)CCOc2ccccc2)cn1)c1ccccc1 [Compound 28, N-(1-(2-(Methyl(phenyl)amino)-2-oxoethyl)-1H-pyrazol-4-yl)-3-phenoxypropanamide hydrochloride]",< 30
7,"CN(CCOc1ccccc1)C(=O)Cn1cc(NC(=O)CCOc2ccccc2)cn1 [Compound 29, N-(1-(2-(Methyl(2-phenoxyethyl)amino)-2-oxoethyl)-1H-pyrazol-4-yl)-3-phenoxypropanamide hydrochloride]",< 30
8,"CN(CCOc1ccc(C(F)(F)F)cc1)C(=O)Cn1cc(NC(=O)CCOc2ccccc2)cn1 [Compound 30, N-(1-(2-(Methyl(2-(4-(trifluoromethyl)phenoxy)ethyl)amino)-2-oxoethyl)-1H-pyrazol-4-yl)-3-phenoxypropanamide hydrochloride]",≥ 50
9,CN(CCCc1ccc(C(F)(F)F)cc1)C(=O)Cn1cc(NC(=O)CCOc2ccccc2)cn1 [Compound 31],< 30
10,Cc1ccc(OCCN(C)C(=O)Cn2cc(NC(=O)CCOc3ccccc3F)cn2)cc1 [Compound 34],≥ 50
11,Cc1ccc(OCCN(C)C(=O)Cn2cc(NC(=O)CCOc3ccc(CO)cc3)cn2)cc1 [Compound 35],≥ 50
12,Cc1ccc(OCCN(C)C(=O)Cn2cc(NC(=O)CCOc3cccc(F)c3)cn2)cc1 [Compound 36],≥ 50
13,Cc1ccc(OCCN(C)C(=O)Cn2cc(NC(=O)CCOc3ccc(N)cc3)cn2)cc1 [Compound 37],≥ 50
14,CN(CCOc1ccccn1)C(=O)Cn1cc(NC(=O)CCOc2ccccc2)cn1 [Compound 38],< 30
15,CN(CCOc1ccc(C(F)(F)F)cn1)C(=O)Cn1cc(NC(=O)CCOc2ccccc2)cn1 [Compound 39],30 to 50
16,CN(CCOc1ccc(C2(C(F)(F)F)N=N2)cc1)C(=O)Cn1cc(NC(=O)CCOc2ccccc2)cn1 [Compound 40],< 30
17,Cc1ccc(OCCNC(=O)Cn2cc(NC(=O)CCOc3ccccc3)cn2)cc1 [Compound 41],< 30
18,COc1ccc(OCCNC(=O)Cn2cc(NC(=O)CCOc3ccccc3)cn2)cc1 [Compound 42],< 30
19,Cc1ccc(CN(C)C(=O)Cn2cc(NC(=O)CCOc3ccccc3)cn2)cc1 [Compound 43],< 30
20,Cc1ccc(OCCN(C)C(=O)Cn2cc(NC(=O)COc3ccccc3)cn2)cc1 [Compound 44],30 to 50
21,Cc1ccc(OCCN(C)C(=O)Cn2cc(NC(=O)CCOc3ccc(Cl)cc3)cn2)cc1 [Compound 45],30 to 50
22,Cc1ccc(OCCN(C)C(=O)C(C)n2cc(NC(=O)CCOc3ccccc3)cn2)cc1 (centres unmarked) [Compound 46],30 to 50
23,Cc1ccc(OCCN(C)C(=O)Cn2nc(C)c(NC(=O)CCOc3ccccc3)c2C)cc1 [Compound 47],< 30
24,"Cc1ccc(OCCN(C)C(=O)Cn2ccc(NC(=O)CCOc3ccccc3)n2)cc1 [Compound 50, N-(1-(2-(methyl(2-(p-tolyloxy)ethyl)amino)-2-oxoethyl)-1H -pyrazol-3-yl)-3-phenoxypropanamide]",< 30
25,COc1ccc(OCCC(=O)Nc2ccn(CC(=O)N(C)CCOc3ccc(C)cc3)n2)cc1 [Compound 51],< 30
26,Cc1ccc(OCCN(C)C(=O)Cn2cc(NC(=O)CCCc3ccccc3)cn2)cc1 [Compound 53],30 to 50
